Results from patent US7094394B2, “Methods and compositions for controlling biofilm development” (priority 1997, dated 2006).
“Also recorded” adds a separate entry of the source.

Legend:
[1] = test system: P. aeruginosa PAO1 wild-type biofilm; experiment: Biofilm cell cluster average thickness, wild type; type: cell-based, Pseudomonas aeruginosa; settings: 10 uM in growing PAO1 biofilm, 10 days incubation
Description: (§1) 1. Biofilm average cell cluster depth: This parameter is a measure of the average thickness in microns of cell clusters in a biofilm. Depth measurements are performed microscopically, by measuring the maximum distance from the substratum to the apex of a biofilm cell cluster at the bulk water interface in a steady state biofilm for a minimum of 20 cell clusters. Previous measurements have shown that with P. aeruginosa, the average cell cluster depth is 102.3 um with a standard error of the mean of 20.5 um. When the gene responsible for the production of the homoserine lactone OdDHL is knocked out, the average cell cluster depth drops to only 22.8 um with a standard error of the mean of 10.0.
Continuous culture studies. […]
(§2) Log phase P. aeruginosa were inoculated through a septum approximately 1 cm upstream from the flow cell while flow was maintained. […] Flow through the system was then increased to remove any bacteria attached to the inside surface of the coverslip (as determined by microscopy). […]
An analog of OdDHL, N-(2,2-difluorodecanoyl)-L-homoserine lactone was dissolved in 25% ethanol, 75% water by volume and added at a final concentration of 10 uM to growing biofilm cultures of P. aeruginosa PAO1 wild-type. Following 10 days incubation, the biofilm was analyzed for cell to cell distances, cell cluster thickness and response to treatment with 0.2% SDS. […]

[2] = test system: P. aeruginosa PAO1 wild-type biofilm; experiment: Average cell to cell distance in biofilm, wild type; type: cell-based, Pseudomonas aeruginosa; settings: 10 uM in growing PAO1 biofilm, 10 days incubation
Description: (§3) 2. Biofilm cell nearest neighbor analysis: This parameter is a measure of the average distance spacing between cells within a biofilm cell cluster or between cells at a substratum. Both measurements are influenced by the presence of the homoserine lactone OdDHL. The nearest neighbor analysis is performed by imaging 20 or more fields in a biofilm reactor and electronically determining the centroid of each cell. The relative distances from a marker cell to all other cells is computed and iterated for each cell in the population. The average nearest neighbor is then calculated. […] When OdDHL is added to the nutrient feed of the mutant defective in the production of that HSL, the average nearest neighbor increases to just over 9 um in distance.
An analog of OdDHL, N-(2,2-difluorodecanoyl)-L-homoserine lactone was dissolved in 25% ethanol, 75% water by volume and added at a final concentration of 10 uM to growing biofilm cultures of P. aeruginosa PAO1 wild-type. Following 10 days incubation, the biofilm was analyzed for cell to cell distances, cell cluster thickness and response to treatment with 0.2% SDS. […] Finally, when treated with 0.2% SDS by weight, the treated biofilm was disrupted and dispersed within 30 minutes (FIGS. 5a to 5f).

[3] = test system: P. aeruginosa PAO1 biofilm cell clusters; experiment: Effect of detergent (0.2% SDS) on biofilm dispersion, wild type; type: cell-based, Pseudomonas aeruginosa
Description: SDS on wild-type P. aeruginosa PAO1. The bacteria were grown in EPRI medium in continuous culture for 10 days (a,d). Following the incubation period, 0.2% SDS was added to the reactor and flow was halted for 30 minutes (b,e). Following incubation with SDS, flow was reinitiated (c,f).
(§4) 3. […] It has been shown previously (Davies, Doctoral Thesis, Montana State University, 1996) that matrix polymer, specifically alginate, prevents the dissolution of P.aeruginosa cell clusters treated with 0.2% SDS. However, when cell clusters are formed in the absence of alginate they are completely disrupted in under 30 minutes (FIGS. 2a, 2b, 2c and 2d). By microscopic examination of cell cluster thickness before and after treatment with SDS or by capturing effluent samples following similar treatment, a quantitative evaluation of the effect of agents capable of blocking the production of detergent resistant matrix material can be made.
(§5) In the present experiment, treatment with the detergent was shown not to affect the biofilm in the absence of released alginate lyase.
Following 10 days incubation, the biofilm was analyzed for cell to cell distances, cell cluster thickness and response to treatment with 0.2% SDS. […] Finally, when treated with 0.2% SDS by weight, the treated biofilm was disrupted and dispersed within 30 minutes (FIGS. 5a to 5f).

[4] = test system: P. aeruginosa PDO100 biofilm; experiment: Biofilm dispersion by BHL in rhlI knockout; type: cell-based, Pseudomonas aeruginosa
Description: This hypothesis was investigated by growing biofilms of P. aeruginosa PDOlOO and adding BHL to the influent medium at a concentration of 20 μM after 7 days growth. […] When P. aeruginosa PDOIOO was grown in the absence of BHL, medium flow was turned off after 7 days. Following cessation of flow, no dispersion of cell clusters was observed over the duration of the observation period of 96 hours.

algC promoter = experiment: Alginate promoter reporter activity (beta-galactosidase), algC; type: cell-based, P. aeruginosa strain 8830; settings: batch culture 48 hours, 10 uM OdDHL or 20 uM BHL
Description: (§6) FIGS. 3a and 3b are alginate promoter studies which show the activity of the alginate promoters algC, and algD. Cultures of P. aeruginosa strain 8830 were grown for 48 hours in batch culture flasks containing EPRI medium. Test flasks were amended by either 10 uM OdDHL (PAI), 20 uM BHL (butyryl-L-homoserine lactone) or both (PAI+BHL). Following incubation, cells were harvested and promoter activity was measured as specific activity of the beta-galactosidase reporter enzyme as normalized to cell protein.
(§7) 4. […] Alginate is a common matrix material in biofilms, and is not exclusive to P. aeruginosa. The sensitivity of P. aeruginosa to HSL activity provides a rapid assay for HSLs that is sensitive and quantitative. The responsiveness of the specific biofilm genes algC and algD to HSL activity allows assays to be performed in liquid or on semi solid medium. This provides the opportunity to perform rapid screening of test molecules for their effect on alginate production.

algD promoter = experiment: Alginate promoter reporter activity (beta-galactosidase), algD; type: cell-based, P. aeruginosa strain 8830; settings: batch culture 48 hours, 10 uM OdDHL or 20 uM BHL
Description: as §6, §7

[5] = test system: P. aeruginosa PAO-JP1 biofilm; experiment: Biofilm average cell cluster depth, OdDHL knockout; type: cell-based, Pseudomonas aeruginosa; settings: OdDHL added back to nutrient feed of OdDHL knockout; standard error 25.2
Description: as §1
(§8) Continuous culture studies. A continuous culture apparatus was developed to observe the growth and development of biofilms attached to a glass substratum. The apparatus was configured as a once through flow cell system. The influent defined culture medium was retained in a four liter glass reservoir. […]
as §2

[6] = test system: P. aeruginosa JP1 biofilm; experiment: Biofilm cell nearest neighbor analysis, OdDHL knockout; type: cell-based, Pseudomonas aeruginosa; settings: OdDHL (10 uM) added to nutrient feed of OdDHL-defective mutant, at the substratum
Description: as §3

[7] = test system: P. aeruginosa PAO-JP1 biofilm cell clusters; experiment: Effect of detergent (0.2% SDS) on biofilm dispersion, lasI knockout; type: cell-based, Pseudomonas aeruginosa
Description: FIGS. 2a, 2b, 2c, and 2d are cell cluster studies which show the effect of the addition of 0.2% SDS to a biofilm cell cluster of the lasI knockout strain P. aerguginosa PAO-JP1. The strain was grown in EPRI medium for 10 days in continuous culture reactor under flowing conditions (a). SDS was added to the culture reactor and flow was turned off for 30 min (b,c). Following incubation in the presence of SDS, flow was reinitiated (d);
as §4, §5

[8] = test system: P. aeruginosa PAO-JP2 biofilm; experiment: Biofilm architecture recovery in double mutant (microscopy); type: cell-based, Pseudomonas aeruginosa; settings: double mutant cultured with 10 μM OdDHL in fresh medium
Excerpt: The most unequivocal experimental design, to determine the role of HSL signal molecules on the formation of biofilms by cells of P. aeruginosa, was to use direct microscopic methods to monitor biofilm formation by cells of HSL negative mutants. For this reason planktonic cells of a wild-type strain (PAO1), and of three mutants incapable of synthesizing specific HSLs, were introduced into flow cells, and adhesion and biofilm formation were monitored by means of confocal scanning laser microscopy (CSLM). Using these techniques, it is possible to monitor the development of live biofilms of the strains of interest.
as §8, with “reservoir. Medium from the influent reservoir was pumped through silicone tubing via a Masterflex pump to an aeration flask sparged with a filtered air source.” for “reservoir.”
as §2

[9] = test system: P. aeruginosa PAO-JP2 biofilm cell clusters; experiment: Effect of detergent (0.2% SDS) on biofilm dispersion, double mutant; type: cell-based, Pseudomonas aeruginosa
Excerpt: as §5

## CCCCCCCCC(F)(F)C(=O)N[C@H]1CCOC1=O [N-(2,2-difluorodecanoyl)-L-homoserine lactone]
[1]
  cell cluster average thickness: under 20 um
[2]
  average cell to cell distance: less than 4 um
[3]; PAO1 biofilm grown 10 days with 10 uM blocking agent
  time to disruption and dispersion on treatment with 0.2% SDS: ≤ 30 min
[3]; PAO1 cultured 10 days in presence of 20 uM OdDHL analog, SDS 30 minutes without flow
  cell cluster dispersion after 0.2% SDS and reinitiation of flow: disperses completely

## CCCC(=O)N[C@H]1CCOC1=O [BHL, N-butyryl-L-homoserine lactone]
[4]; 20 μM BHL in influent medium after 7 days growth, 24 hours
  effect on biofilm with medium flow on: no observable effect
[4]; 20 μM BHL, flow off for 16 hours, detachment continued for three hours
  detachment after medium flow shut off: significant detachment
algC promoter
  algC promoter response: sensitive
algD promoter
  algD promoter response: sensitive

## CCCCCCCCCC(=O)CC(=O)N[C@H]1CCOC1=O [OdDHL, N-(3-oxododecanoyl)-L-homoserine lactone]
[5]
  average cell cluster thickness: 100.1 um
[6]
  average nearest neighbor distance: over 9 um
[7]; PAO-JP1 grown in the presence of 10 μM OdDHL
  dispersion of cell clusters by 0.2% SDS: did not disperse bacteria in the cell clusters
[8]
  biofilm architecture phenotype: recovery of the intermediary phenotype
algC promoter
  algC promoter response: sensitive
algD promoter
  algD promoter response: sensitive

## CCCCCCCCCCCCOS(=O)(=O)[O-].[Na+] [SDS, sodium dodecyl sulfate]
[3]; 0.2% SDS, untreated wild-type PAO1, sulfate
  effect of SDS on cell cluster integrity/dispersion: no effect; also recorded: no dispersion or release of bacteria
[7]; 0.2% SDS, PAO-JP1 without added HSL
  dispersion of cell clusters by SDS: disperse completely
[7]; 0.2% SDS, cell clusters formed in the absence of alginate (FIGS. 2a-2d)
  time to complete disruption of cell clusters by SDS: under 30 minutes
[9]
  dispersion of cell clusters by SDS: disperse completely
